The record followed here is patent publication US10183949B2, “Pyrimidinone derivative having autotaxin-inhibitory activity” (The University of Tokyo, priority 2014, dated 2019).

The target of the test is T1, Human autotaxin enzyme (Homo sapiens, UniProt Q13822).
T1 construct: purchased R&D System
Kind of test: Evaluation of autotaxin inhibitor, 18:0 Lyso PC / choline assay (Test Example 2). It is filed as biochemical. The conditions noted are these: human autotaxin enzyme, 18:0 Lyso PC substrate, choline assay, room temperature 2 hours; read-out: Inhibitor activity (IC50). The procedure, abridged: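 Inhibition derived from concentration-dependent curves, scaled between no-compound (0%) and no-enzyme (100%) wells. Choline generated from 18:0 Lyso PC (200 μM stock) by human enzyme over 2 h at room temperature (Tris-HCl pH 7.5, NaCl, MgCl2, Triton X-100) read as resorufin fluorescence, 531/598 nm, after choline oxidase-peroxidase coupling.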
Consider `O=C(Cn1c(CCCC(F)(F)F)nc(-c2ccc(C(F)(F)F)cc2)cc1=O)N1CCC(O)(Cc2ccccc2)CC1` [Compound I-0369], for which the IC50 was in the range of 100 to 1000 nM.
To `CCS(=O)(=O)N1CCC(NC(=O)Cn2c(CCCC(F)(F)F)nc(-c3ccc(C(F)(F)F)cc3)cc2=O)CC1` [Compound I-0370] belongs 100 to 1000 nM.
`Cc1nc(-c2ccc(Cl)cc2NC(=O)C(C)(C)C)cc(=O)n1CCO` [Compound I-0371]: the IC50 is at least 1000 nM.
As for `COC(=O)Nc1cc(C#N)ccc1-c1cc(=O)n(CC(=O)NC(C)(C)C)c(C)n1` [Compound I-0372], the figure is 10 to 100 nM.
Regarding `COC(=O)Nc1cc(C#N)ccc1-c1cc(=O)n(CC(=O)OC(C)(C)C#N)c(C)n1` [Compound I-0373], the IC50 fell in the range of 10 to 100 nM.
As for `COC(=O)Nc1cc(C#N)ccc1-c1cc(=O)n(CC(=O)N(C)C(C)(C)C)c(C)n1` [Compound I-0374], the figure is 10 to 100 nM; as for `COC(=O)Nc1cc(Cl)ccc1-c1cc(=O)n(CC(=O)OC(C)(C)C#N)c(C)n1` [Compound I-0375], below 10 nM.
As for `Cc1nc(-c2ccc(Cl)cc2NC(=O)C(C)(C)C)cc(=O)n1CC(=O)NC1(C#N)CC1` [Compound I-0376], the figure is 10 to 100 nM; as for `COC(=O)Nc1cc(Cl)ccc1-c1cc(=O)n(Cc2cccc(C(=N)NO)c2)c(C)n1` [Compound I-0377], 10 to 100 nM.
To `COC(=O)Nc1cc(C#N)ccc1-c1cc(=O)n(Cc2cccc(-c3nc(=O)o[nH]3)c2)c(C)n1` [Compound I-0378] belongs below 10 nM; to `COC(=O)Nc1cc(Cl)ccc1-c1cc(=O)n(Cc2cccc(-c3nc(=O)o[nH]3)c2)c(C)n1` [Compound I-0379], below 10 nM.
Regarding `Cc1nc(-c2ccc(Cl)cc2NC(=O)C(C)(C)C)cc(=O)n1CC(=O)NC1(C(=N)NO)CC1` [Compound I-0380], the IC50 was in the range of 10 to 100 nM.
Turning to `CNC(=O)NC1CCN(C(=O)Cn2c(C)nc(-c3ccc(C#N)cc3NC(=O)OC)cc2=O)CC1` [Compound I-0381], the IC50 was 10 to 100 nM.
As for `CCCCCc1nc(-c2ccc(Cl)cc2)cc(=O)n1CC(=O)N1CCC(c2nc(=O)o[nH]2)CC1` [Compound I-0382], the figure is 10 to 100 nM.
To `CNC(=O)NC1CCN(C(=O)Cn2c(C)nc(-c3ccc(Cl)cc3NC(=O)OC)cc2=O)CC1` [Compound I-0383] belongs 10 to 100 nM; to `COC(=O)Nc1cc(Cl)ccc1-c1cc(=O)n(CC(=O)N2C(C)(C)CC(O)CC2(C)C)c(C)n1` [Compound I-0384], at least 1000 nM.
For the molecule `Cc1nc(-c2ccc(C#N)cc2NC(=O)C(C)(C)C)cc(=O)n1CC(=O)NC1(c2nc(=O)o[nH]2)CC1` [Compound I-0385], the concentration for half-maximal inhibition (IC50) was in the range of 10 to 100 nM.
`Cc1nc(-c2ccc(Cl)cc2NC(=O)C(C)(C)C)cc(=O)n1CC(=O)NC1(c2nc(=O)o[nH]2)CC1` [Compound I-0386]: the IC50 lay within 10 to 100 nM.
As for `O=C(Cn1c(CCCC(F)(F)F)nc(-c2ccc(C(F)(F)F)cc2)cc1=O)NC1(c2nc(=O)o[nH]2)CC1` [Compound I-0387], the figure is 10 to 100 nM; as for `CC(C)(C)OC(=O)Cn1cnc(-c2ccc(Cl)cc2)cc1=O` [Compound I-0388], at least 1000 nM.
To `COC(=O)Nc1cc(C#N)ccc1-c1cc(=O)n(CC(=O)NC(C)C)c(C)n1` [Compound I-0389] belongs 10 to 100 nM; to `COC(=O)Nc1cc(Cl)ccc1-c1cc(=O)n(CC(=O)NC(C)C)c(C)n1` [Compound I-0390], 10 to 100 nM.
For `Cc1nc(-c2ccc(Cl)cc2NC(=O)C2CC2)cc(=O)n1CC(=O)NC(C)C` [Compound I-0391], the IC50 fell in the range of 10 to 100 nM.
Turning to `COC(=O)Nc1cc(Cl)ccc1-c1cc(=O)n(CC(=O)NC2(C)CC2)c(C)n1` [Compound I-0392], the IC50 was in the range of 10 to 100 nM.
As for `COC(=O)Nc1cc(Cl)ccc1-c1cc(=O)n(CC(=O)NC2COC2)c(C)n1` [Compound I-0393], the figure is 10 to 100 nM.
As for `COC(=O)Nc1cc(C#N)ccc1-c1cc(=O)n(CC(=O)NC2(C#N)CC2)c(C)n1` [Compound I-0394], the figure is below 10 nM; as for `COC(=O)Nc1cc(Cl)ccc1-c1cc(=O)n(CC(=O)N2CC(F)C2)c(C)n1` [Compound I-0395], 100 to 1000 nM; as for `O=C(Cn1cnc(-c2ccc(Cl)cc2)cc1=O)NC(Cc1ccccc1)C(=O)O` (stereo not drawn) [Compound I-0396], at least 1000 nM.
As for `COC(=O)Nc1cc(C#N)ccc1-c1cc(=O)n(CC(=O)NC2(C)COC2)c(C)n1` [Compound I-0397], the figure is 10 to 100 nM; as for `COC(=O)Nc1cc(C#N)ccc1-c1cc(=O)n(CC(=O)N2CC(C)(O)C2)c(C)n1` [Compound I-0398], 100 to 1000 nM.
Consider `COC(=O)Nc1cc(C#N)ccc1-c1cc(=O)n(CC(=O)NCC(C)(C)O)c(C)n1` [Compound I-0399], for which the IC50 is 10 to 100 nM.
To `COC(=O)Nc1cc(C#N)ccc1-c1cc(=O)n(CC(=O)NC(C)(C)CO)c(C)n1` [Compound I-0400] belongs 10 to 100 nM.
Regarding `Cc1nc(-c2ccc(Cl)cc2NC(=O)C2CC2)cc(=O)n1CC(=O)NC1(C)CC1` [Compound I-0401], the IC50 lay in the range of 10 to 100 nM.
As for `O=C(Cn1cnc(-c2ccc(Cl)cc2)cc1=O)NCCCNC(=O)c1cn[nH]n1` [Compound I-0402], the IC50 is at least 1000 nM.
As for `COC(=O)Nc1cc(Cl)ccc1-c1cc(=O)n(CC(=O)NC2(C#N)CC2)c(C)n1` [Compound I-0403], the figure is 10 to 100 nM.
As for `Cc1nc(-c2ccc(Cl)cc2NC(=O)C2CC2)cc(=O)n1CC(=O)NC1COC1` [Compound I-0404], the figure is 10 to 100 nM.
As for `Cc1nc(-c2ccc(Cl)cc2NC(=O)C2CC2)cc(=O)n1CC(=O)NC(C)(C)C` [Compound I-0405], the figure is 10 to 100 nM; as for `Cc1nc(-c2ccc(Cl)cc2NC(=O)C2CC2)cc(=O)n1CC(=O)NCC(N)=O` [Compound I-0406], 10 to 100 nM; as for `CC(C)(C)NC(=O)Cn1cnc(-c2ccc(Cl)cc2NC(=O)C(C)(C)C)cc1=O` [Compound I-0407], 10 to 100 nM.
In the case of `Cc1nc(-c2ccc(Cl)cc2NC(=O)C2CC2)cc(=O)n1CC(=O)N1CC(F)C1` [Compound I-0408], the IC50 lay within 100 to 1000 nM.
As for `CC(C)(C)C(=O)Nc1cc(Cl)ccc1-c1cc(=O)n(CC(=O)NCC(N)=O)cn1` [Compound I-0409], the figure is 100 to 1000 nM; as for `COC(=O)Nc1cc(Cl)ccc1-c1cc(=O)n(CC(=O)NC2(C)COC2)c(C)n1` [Compound I-0410], below 10 nM; as for `COC(=O)Nc1cc(Cl)ccc1-c1cc(=O)n(CC(=O)N2CC(C)(O)C2)c(C)n1` [Compound I-0411], 100 to 1000 nM.
To `COC(=O)Nc1cc(Cl)ccc1-c1cc(=O)n(CC(=O)NC(C)(C)CO)c(C)n1` [Compound I-0412] belongs below 10 nM; to `COC(=O)Nc1cc(Cl)ccc1-c1cc(=O)n(CC(=O)NCC(C)(C)O)c(C)n1` [Compound I-0413], 10 to 100 nM.
As for `COC(=O)Nc1cc(C#N)ccc1-c1cc(=O)n(CC(=O)NCc2c[nH]nn2)c(C)n1` [Compound I-0414], the figure is below 10 nM; as for `COC(=O)Nc1cc(Cl)ccc1-c1cc(=O)n(CC(=O)NC(C)(C)CF)c(C)n1` [Compound I-0415], below 10 nM; as for `Cc1nc(-c2ccc(Cl)cc2NC(=O)C2CC2)cc(=O)n1CC(=O)NC1(C#N)CC1` [Compound I-0416], 10 to 100 nM.
For the molecule `COC(=O)Nc1cc(C#N)ccc1-c1cc(=O)n(CC(=O)NCC2(CO)CC2)c(C)n1` [Compound I-0417], the IC50 lay within 10 to 100 nM.
As for `COC(=O)Nc1cc(C#N)ccc1-c1cc(=O)n(CC(=O)N2CCC(O)CC2)c(C)n1` [Compound I-0418], the figure is 10 to 100 nM.
As for `Cc1nc(-c2ccc(Cl)cc2NC(=O)C2CC2)cc(=O)n1CC(=O)NC1(C)COC1` [Compound I-0419], the figure is 10 to 100 nM.
As for `Cc1nc(-c2ccc(Cl)cc2NC(=O)C2CC2)cc(=O)n1CC(=O)N1CC(C)(O)C1` [Compound I-0420], the IC50 fell in the range of 100 to 1000 nM.
As for `COC(=O)Nc1cc(Cl)ccc1-c1cc(=O)n(CC(=O)NCc2c[nH]nn2)c(C)n1` [Compound I-0421], the figure is below 10 nM; as for `Cc1nc(-c2ccc(Cl)cc2NC(=O)C2CC2)cc(=O)n1CC(=O)NC(C)(C)CO` [Compound I-0422], 10 to 100 nM.
To `Cc1nc(-c2ccc(Cl)cc2NC(=O)C2CC2)cc(=O)n1CC(=O)NCC(C)(C)O` [Compound I-0423] belongs 10 to 100 nM.
As for `Cc1nc(-c2ccc(Cl)cc2NC(=O)C2CC2)cc(=O)n1CC(=O)NC(C)(C)CF` [Compound I-0424], the figure is 10 to 100 nM; as for `COC(=O)Nc1cc(Cl)ccc1-c1cc(=O)n(CC(=O)N2CCC(O)CC2)c(C)n1` [Compound I-0425], 10 to 100 nM; as for `CC(C)(C)C(=O)Nc1cc(Cl)ccc1-c1cc(=O)n(Cc2cccc(C(=O)O)c2)cn1` [Compound I-0427], 10 to 100 nM.
Consider `COC(=O)Nc1cc(C#N)ccc1-c1cc(=O)n(CC(=O)NCC2CNC(=O)C2)c(C)n1` (stereo not drawn) [Compound I-0428], for which the IC50 was in the range of 10 to 100 nM.
To `COC(=O)Nc1cc(C#N)ccc1-c1cc(=O)n(CC(=O)NCc2cc(=O)[nH]o2)c(C)n1` [Compound I-0429] belongs below 10 nM; to `COC(=O)Nc1cc(C#N)ccc1-c1cc(=O)n(CC(=O)NCC2CNC(=O)O2)c(C)n1` (stereo not drawn) [Compound I-0430], 10 to 100 nM.
As for `Cc1nc(-c2ccc(Cl)cc2NC(=O)C2CC2)cc(=O)n1CC(=O)NCc1c[nH]nn1` [Compound I-0431], the figure is 10 to 100 nM; as for `COC(=O)Nc1cc(Cl)ccc1-c1cc(=O)n(CC(=O)N2CCC(C#N)CC2)c(C)n1` [Compound I-0433], 10 to 100 nM.
To `Cc1nc(-c2ccc(Cl)cc2NC(=O)C2CC2)cc(=O)n1CC(=O)NCC1(CO)CC1` [Compound I-0434] belongs 10 to 100 nM.
Consider `Cc1nc(-c2ccc(Cl)cc2NC(=O)C2CC2)cc(=O)n1CC(=O)N1CCC(O)CC1` [Compound I-0435], for which the IC50 is 10 to 100 nM.
As for `COC(=O)Nc1cc(Cl)ccc1-c1cc(=O)n(CC(=O)NCC2CCC(=O)N2)c(C)n1` (stereo not drawn) [Compound I-0437], the figure is 10 to 100 nM.

In general, IC50 refers to the point on the concentration scale where inhibition reaches its midpoint.
